# Reference: patent US7632830B2, “Lactam compounds and pharmaceutical use thereof” (Ajinomoto Co., Inc., priority 2000, dated 2009)
# Test system: adipose cells of rats
# Test: Evaluation of the sugar-transporting activity (2-[14C(U)]-deoxy-D-glucose incorporation)
# Assay type: cell-based
# Settings: rat adipose cells; for activation at 100 µg/mL: 100 μg/ml of each compound, evaluated on the basis of the reinforcing effect of insulin (100 nM); for A: sugar transporting activity (EC50): concentration having a reinforcing effect corresponding to 50% of the reinforcing effect of insulin (100%)
# Procedure: After the decapitation and venesection of 6 male Wistar rats (body weight: 150 to 200 g), an incision was made in the abdomen of each rat to extract 6 g in total of epididymal adipose tissues. The tissues were finely cut into 2 mm×2 mm pieces in 6 ml of KRH (Krebs-Ringer Hepes, composition: 130 mM of sodium chloride, 4.7 mM of potassium chloride, 1.2 mM of potassium dihydrogenphosphate, 1.2 mM of magnesium sulfate, 1 mM of calcium chloride and 25 mM of Hepes, pH=7.6) containing 5% of BSA (bovine serum albumin). 24 mg of collagenase (type I) was added thereto and the digestion treatment was conducted for about 40 minutes to obtain about 6 ml of isolated adipose cells. The collagenase was removed by the buffer exchange. 2% BSA/KRH solution was added to the residue for the re-suspension to obtain 45 ml of an adipose cell suspension.
# The sugar-transporting activity of the compounds of the present invention was evaluated with reference to a method described in a literature [Annual Review of Biochemistry, Vol. 55, p. 1059 (1986)]. In the test, 200 μl of the adipose cell suspension was poured in each polystyrene test tube, 100 μl of the solution of the test substance (by dilution of 10 mg/ml substance dimethyl sulfoxide solution with KRH) was added thereto, and the obtained mixture was shaken and then cultured at 37° C. for 30 minutes.
# The sugar-transporting activity was evaluated by measuring the quantity of 2-[^14C(U)]-deoxy-D-glucose incorporated per a unit time. Namely, 2-[^14C(U)]-deoxy-D-glucose was added to the adipose cell suspension after the pre-culture (the final concentration: 0.5 μCi/sample). 5 minutes after, cytochalasin B (final concentration: 10 μM) was added to the mixture to terminate the sugar transportation. After forming a dinonyl phthalate layer, the obtained mixture was centrifuged to separate the adipose cells from the buffer. The quantity of 2-[^14C(U)]-deoxy-D-glucose contained in the adipose cell layer was determined with a liquid scintillation counter to determine the quantity of the incorporated sugar. In this evaluation system, when insulin (100 nM) having the effect of increasing the sugar transportation was used, the effect was about 7 times as high as that obtained in the insulin-free control group.
# The results of the evaluation of the sugar-transporting activity obtained by using 100 μg/ml of each compound of the present invention are shown in Table 6. The sugar transporting activity in Table 6 was evaluated on the basis of the reinforcing effect of insulin (100 nM). […] The symbols in Table 6 are as follows: • No: Example No., and • A: sugar transporting activity.
# The results of the evaluation of the sugar-transporting activity obtained by using each compound of the present invention are shown in Table 7. The sugar transporting activity in Table 7 was determined in terms of the concentration (EC50: μg/ml) of a test compound, having a reinforcing effect corresponding to 50% on the basis of the reinforcing effect of insulin having a reinforcing effect of 100%.
A: sugar transporting activity (EC50) [µg/mL],Structure (SMILES),activation at 100 µg/mL [%]
,O=C1NCC2=C1C(c1ccc(OCc3ccccc3)cc1)Nc1ccccc1N2 (stereo not drawn) [Example 1],40 to 70
,O=C1NCC2=C1C(c1ccc(Cl)cc1)Nc1ccccc1N2 (stereo not drawn) [Example 2],20 to 40
,O=C1NCC2=C1C(c1ccc(I)cc1)Nc1ccccc1N2 (stereo not drawn) [Example 3],20 to 40
,CC(C)(C)c1ccc(C2Nc3ccccc3NC3=C2C(=O)NC3)cc1 (stereo not drawn) [Example 5],20 to 40
,O=C1NCC2=C1C(c1ccc(C#Cc3ccccc3)cc1)Nc1ccccc1N2 (stereo not drawn) [Example 6],40 to 70
,O=C1NCC2=C1C(c1ccc(-c3ccccc3)cc1)Nc1ccccc1N2 (stereo not drawn) [Example 7],40 to 70
,O=C1NCC2=C1C(c1ccc(-c3ccc([N+](=O)[O-])cc3)cc1)Nc1ccccc1N2 (stereo not drawn) [Example 8],≥ 70
,O=C1NCC2=C1C(c1ccc3c(c1)Cc1ccccc1-3)Nc1ccccc1N2 (stereo not drawn) [Example 9],40 to 70
,CCCCOc1ccc(C2Nc3ccccc3NC3=C2C(=O)NC3)cc1 (stereo not drawn) [Example 10],20 to 40
,CCCCCCCCCCCCOc1ccc(C2Nc3ccccc3NC3=C2C(=O)NC3)cc1 (stereo not drawn) [Example 11],40 to 70
,O=C1NCC2=C1C(c1ccc(OC3CCCCCC3)cc1)Nc1ccccc1N2 (stereo not drawn) [Example 12],20 to 40
,O=C1NCC2=C1C(c1ccc(OC3C4CC5CC(C4)CC3C5)cc1)Nc1ccccc1N2 (stereo not drawn) [Example 13],40 to 70
,O=C1NCC2=C1C(c1ccc(OCC34CC5CC(CC(C5)C3)C4)cc1)Nc1ccccc1N2 (stereo not drawn) [Example 14],≥ 70
,O=C1NCC2=C1C(c1ccc(OCCC34CC5CC(CC(C5)C3)C4)cc1)Nc1ccccc1N2 (stereo not drawn) [Example 15],40 to 70
,O=C1NCC2=C1C(c1ccc(OCCC3CCCCC3)cc1)Nc1ccccc1N2 (stereo not drawn) [Example 16],40 to 70
,O=C1NCC2=C1C(c1ccc(-n3cccn3)cc1)Nc1ccccc1N2 (stereo not drawn) [Example 17],20 to 40
,O=C1NCC2=C1C(c1ccc(Cl)cc1Cl)Nc1ccccc1N2 (stereo not drawn) [Example 20],20 to 40
,CCCCOc1ccc(C2Nc3ccccc3NC3=C2C(=O)NC3)c(OC)c1 (stereo not drawn) [Example 21],40 to 70
,CCCCOc1ccc(C2Nc3ccccc3NC3=C2C(=O)NC3)c(OCCCC)c1 (stereo not drawn) [Example 22],≥ 70
,CCCCOc1ccc(C2Nc3ccccc3NC3=C2C(=O)NC3)c(OCC)c1 (stereo not drawn) [Example 23],≥ 70

A: sugar transporting activity (EC50) [µg/mL],Structure (SMILES),activation at 100 µg/mL [%]
,CCCCOc1ccc(C2Nc3ccccc3NC3=C2C(=O)NC3)c(OCCC)c1 (stereo not drawn) [Example 24],≥ 70
,CCCOc1cc(OCC)ccc1C1Nc2ccccc2NC2=C1C(=O)NC2 (stereo not drawn) [Example 25],40 to 70
,CCCOc1ccc(C2Nc3ccccc3NC3=C2C(=O)NC3)c(OCC)c1 (stereo not drawn) [Example 26],40 to 70
,CCCCCCOc1ccc(C2Nc3ccccc3NC3=C2C(=O)NC3)c(OC)c1 (stereo not drawn) [Example 27],40 to 70
,COc1cc(OCc2ccccc2)ccc1C1Nc2ccccc2NC2=C1C(=O)NC2 (stereo not drawn) [Example 28],40 to 70
,CCCCCCOc1ccc(C2Nc3ccccc3NC3=C2C(=O)NC3)c(O)c1 (stereo not drawn) [Example 29],20 to 40
,CC(C)(C)c1ccc(C2Nc3ccccc3NC3=C2C(=O)NC3)c(Cl)c1 (stereo not drawn) [Example 30],20 to 40
,CC(C)(C)CC(C)(C)c1ccc(C2Nc3ccccc3NC3=C2C(=O)NC3)c(Cl)c1 (stereo not drawn) [Example 31],≥ 70
,O=C1NCC2=C1C(c1cnc(-c3ccccc3)nc1)Nc1ccccc1N2 (stereo not drawn) [Example 34],20 to 40
,O=C1NCC2=C1[C@@H](c1ccc(Br)cc1)N[C@@H]1CCCC[C@H]1N2 [Example 37],40 to 70
,O=C1NCC2=C1[C@@H](c1ccc(OCc3ccccc3)cc1O)N[C@@H]1CCCC[C@H]1N2 [Example 38],≥ 70
,COc1ccccc1[C@H]1N[C@@H]2CCCC[C@H]2NC2=C1C(=O)NC2 [Example 39],≥ 70
,CCCCOc1ccc([C@H]2N[C@@H]3CCCC[C@H]3NC3=C2C(=O)NC3)c(OCCCC)c1 [Example 40],≥ 70
,O=C1NCC2=C1[C@@H](c1ccc(Cl)cc1)N[C@@H]1CCCC[C@H]1N2 [Example 41],≥ 70
,CC(=O)N1c2ccccc2NC2=C(C(=O)NC2)C1c1ccc(Br)cc1 (stereo not drawn) [Example 43],40 to 70
,CN1C2=C(C(=O)NC2)C(c2ccc(Br)cc2)Nc2ccccc21 (stereo not drawn) [Example 44],20 to 40
1.3,COc1ccccc1[C@@H]1C2=C(CNC2=O)N[C@@H]2CCCC[C@H]2N1C(C)=O [Example 45],
0.77,CCC(=O)N1[C@@H]2CCCC[C@H]2NC2=C(C(=O)NC2)[C@H]1c1ccccc1OC [Example 46],
4.6,CCCC(=O)N1[C@@H]2CCCC[C@H]2NC2=C(C(=O)NC2)[C@H]1c1ccccc1OC [Example 47],
4.5,COc1ccccc1[C@@H]1C2=C(CNC2=O)N[C@@H]2CCCC[C@H]2N1C(=O)C(F)(F)F [Example 48],

A: sugar transporting activity (EC50) [µg/mL],Structure (SMILES),activation at 100 µg/mL [%]
0.47,COc1ccccc1[C@@H]1C2=C(CNC2=O)N[C@@H]2CCCC[C@H]2N1C(=O)CC(F)(F)F [Example 49],
9.5,COc1ccccc1[C@@H]1C2=C(CNC2=O)N[C@@H]2CCCC[C@H]2N1C(=O)C(F)(F)C(F)(F)F [Example 50],
2,COc1ccccc1[C@@H]1C2=C(CNC2=O)N[C@@H]2CCCC[C@H]2N1C(=O)CO [Example 51],
5.9,COc1ccccc1[C@@H]1C2=C(CNC2=O)N[C@@H]2CCCC[C@H]2N1C(=O)COC(C)=O [Example 52],
2,COCC(=O)N1[C@@H]2CCCC[C@H]2NC2=C(C(=O)NC2)[C@H]1c1ccccc1OC [Example 53],
2.2,CCOCC(=O)N1[C@@H]2CCCC[C@H]2NC2=C(C(=O)NC2)[C@H]1c1ccccc1OC [Example 54],
4.6,COc1ccccc1[C@@H]1C2=C(CNC2=O)N[C@@H]2CCCC[C@H]2N1C(=O)COc1ccccc1 [Example 55],
5,COc1ccccc1[C@@H]1C2=C(CNC2=O)N[C@@H]2CCCC[C@H]2N1C(=O)Cc1ccccc1 [Example 56],
1.1,CC=CC(=O)N1C(c2ccccc2OC)C2=C(CNC2=O)NC2CCCCC21 (stereo not drawn) [Example 59],
4.8,COC(=O)CCC(=O)N1[C@@H]2CCCC[C@H]2NC2=C(C(=O)NC2)[C@H]1c1ccccc1OC [Example 60],
4.8,COc1ccccc1[C@@H]1C2=C(CNC2=O)N[C@@H]2CCCC[C@H]2N1C(=O)CCCO [Example 62],
8,COc1ccccc1[C@@H]1C2=C(CNC2=O)N[C@@H]2CCCC[C@H]2N1C(=O)CCNC(=O)OCc1ccccc1 [Example 65],
8,COc1ccccc1[C@@H]1C2=C(CNC2=O)N[C@@H]2CCCC[C@H]2N1C(=O)CCN [Example 66],
3.4,COCCC(=O)N1[C@@H]2CCCC[C@H]2NC2=C(C(=O)NC2)[C@H]1c1ccccc1OC [Example 67],
0.9,COc1ccccc1[C@@H]1C2=C(CNC2=O)N[C@@H]2CCCC[C@H]2N1C(=O)CCc1ccccc1 [Example 68],
4,COc1ccccc1CCC(=O)N1[C@@H]2CCCC[C@H]2NC2=C(C(=O)NC2)[C@H]1c1ccccc1OC [Example 69],
4.2,COc1ccccc1[C@@H]1C2=C(CNC2=O)N[C@@H]2CCCC[C@H]2N1C(=O)CCc1ccc(F)c(F)c1 [Example 70],
2.6,COc1ccccc1[C@@H]1C2=C(CNC2=O)N[C@@H]2CCCC[C@H]2N1C(=O)CCSC [Example 71],
5.5,COc1ccccc1[C@@H]1C2=C(CNC2=O)N[C@@H]2CCCC[C@H]2N1C(=O)CC(C)=O [Example 72],
10,COc1ccccc1[C@@H]1C2=C(CNC2=O)N[C@@H]2CCCC[C@H]2N1C(=O)c1ccccn1 [Example 76],
